In series [1] the test system is tumor cell lines or primary cultures of rat neuronal cells. Particulars: continued exposure; cited from earlier work.
The subject of series [2] is MCF-7 cells. On the procedure:
(§1) Human breast tumor cell lines (MCF-7, T47D, SKBr3, and MCF-7/Adr^−) were cultured in DMEM containing 3.7 g/liter Na2HCO3, fetal bovine serum (10%), and insulin (10 mg/liter). For cytotoxicity assays, cells were transferred to DMEM+Ham's nutrient mixture F-12 (without phenol red), with 1.2 g/liter Na2HCO3. Cells were seeded at 100,000 cells/well. Human SK-N-SH neuroblastoma and DU-145 prostate carcinoma cells were cultured in DMEM, supplemented with fetal bovine serum (10%).
(§2) Cell death was assessed by release of lactate dehydrogenase (LDH) into the culture medium using the CytoTox 96 kit from Promega (Madison, Wis.). The method used was as specified by manufacturer with minor modifications. Cells were plated and cultured in 24-well plates for 1 to 2 days prior to the experiment. Cells were treated in the plates under the specified drug conditions. Following treatment, the medium was transferred to centrifuge tubes and centrifuged to remove cell debris. Supernatant (50 μl) was transferred to a 96-well plate, to which was added substrate mix in assay buffer, followed by stop solution after a 30 min incubation. Formation of formazan was monitored at 490 nm in a plate reader. Values are expressed relative to total lysis controls (Triton X-100 was used to determine value for 100% cell kill) and no drug-controls. Doxorubicin and caspase inhibitors (Z-VAD-FMK, Y-VAD-CHO, DEVD-CHO) were obtained from Calbiochem (San Diego, Calif.) and actinomycin-D from Sigma (St. Louis, Mo.).

For series [3] the following is noted: up to 100 mg orally every four hours, 30 mg IV and 60 mg IM; cited from earlier work.
Another series deals with MCF-7/Adr^− cells. As to the kind of experiment: Cytotoxicity assay, LDH release into culture medium. On the procedure:
as §1, §2
A general note: Release of lactate dehydrogenase indicates damage to the cell membrane.

A further series deals with sigma-2 receptor. Particulars: cited from earlier work; for sigma receptor subtype selectivity: sigma-2 vs sigma-1.
The test system of series [4] is SK-N-SH neuroblastoma cells. Particulars: cited from earlier work.
Series [5] deals with MCF-7 cells. As to the kind of experiment: Detection of apoptosis by the TUNEL method. Format: cell-based, human. The conditions noted are these: 100 μM, 48 hours; for TUNEL assay result: FIG. 2. How it is done: (§3) Cells were seeded at 100,000 cells/well.
(§4) DNA fragmentation occurring during apoptosis can be detected by incorporating fluorescein-12-dUTP at the 3′-OH DNA ends using the enzyme, terminal deoxynucleotidyl transferase (TdT). TUNEL (TdT-mediated dUTP Nick-End Labeling) was performed using the Apoptosis Detection System, Fluorescein Kit (Promega, Madison, Wis.) according to the manufacturer's specification. After treatment with sigma ligands at the concentrations and times specified, cells were fixed with 4% formaldehyde, permeabilized with Triton X-100, and incubated with fluorescein-12-dUTP and terminal deoxynucleotidyl transferase and then with propidium iodide. Propidium iodide stains the DNA in both apoptotic and non-apoptotic cells with orange-red color. Fluorescein produces yellow-green fluorescence, indicating fragmented DNA within the nucleus of apoptotic cells. Filters used: excitation 450-490 nm, barrier 520 nm.

The test system of series [6] is breast tumor cell lines possessing p53 mutations. Particulars: Crawford et al., 1999; cited from earlier work.
The subject of series [7] is MCF-7 cells. The series can be described thus: Detection of apoptosis by Annexin V binding. Particulars: drug 100 μM; Z-VAD-FMK or Y-VAD-CHO 50 μM; 48 hours; FIG. 5. The class given is cell-based, human. On the procedure:
as §3
The early stages of apoptosis are characterized by translocation of phosphatidyl serine (PS) from the inner surface of the plasma membrane to the outer surface of the membrane. Externalized PS can then be detected using Annexin V, a protein with high affinity for PS. This was carried out using the ApoAlert Annexin V Apoptosis Kit (Clontech, Palo Alto, Calif.) according to the manufacturer's specifications. After incubation with sigma ligands at the concentrations and times specified, live cells (without fixing) were incubated with annexin V-FITC and propidium iodide, and were investigated using fluorescence microscopy. […] Filters used: excitation 450 nm, barrier 535 nm.

Series [8] relates to T47D cells. The class given is cell-based, human. On the procedure: as §3, §4
Series [9] has as its system T47D cells. The series can be described thus: Cytotoxicity assay, LDH release into culture medium. Format: cell-based, human. Particulars: various concentrations, FIG. 3B. On the procedure:
as §3

Another series relates to SKBr3 cells. The description is as above. Format: cell-based, human. The conditions noted are these: various concentrations, FIG. 3A. On the procedure:
as §3

The next series has as its system breast tumor cell lines. The series can be described thus: Cytotoxicity (LDH release) across breast tumor cell lines. The class given is cell-based, human. The conditions noted are these: for effect of p53 status on cytotoxic potency: mutant p53 (MCF-7/Adr^−, SKBr3, T47D) vs wild-type p53 MCF-7, FIG. 4B; for relative cytotoxic potency: FIG. 3A, 3B, 4B. On the procedure: as §3

A further series has as its system SKBr3 cell lines. The class given is cell-based, human. On the procedure:
as §3, §4

“Also recorded” adds a separate entry of the source. Where two headings read alike, the source gives them in different places. Numbered stars: 1 amine (or outer) side, 2 acyl side, 3 side chain; on linkers, the order of the positions; unused ones are H or OH. Bridge positions count the residues as written; N and C are the ends. Square brackets hold non-standard residues; d marks the D form. Peptide text beside a SMILES is read from it. I, II: the chains in the order shown. Actinocin(9to1) = Cc1c2oc3c(C)ccc(C(=O)[*:1])c3nc-2c(C(=O)[*:2])c(N)c1=O; NMeV = CN[C@H](C(=O)O)C(C)C; Sar = CNCC(=O)O

As to 12-methoxyibogamine [ibogaine], in series [1], the “cell morphological changes and cell death” value is listed as “activity”.
As to `CC(C)=CCN1CCC2(C)c3cc(O)ccc3CC1C2C` (racemic) [pentazocine], the “potentiation of doxorubicin-induced cytotoxicity” value in the series on MCF-7 cells [2] (combined with doxorubicin in MCF-7 cells) was “Little or no potentiation”; in the series with MCF-7/Adr^− cells (haloperidol 25 μM or pentazocine 35 μM with various concentrations of doxorubicin, FIG. 8), “potentiated the cytotoxicity of doxorubicin; also recorded: potentiated the higher doses of doxorubicin”. Further, in series [3], the peak plasma concentrations result is “about 160 ng/ml”.
Regarding `CC(C)=CCN1CCC2(C)c3cc(O)ccc3CC1C2C` (single isomer, unassigned; (+)) [(+)-pentazocine], in series [1], the “cell morphological changes and cell death” value was “lack of activity”. For the same compound, in the series on sigma-2 receptor, the sigma-2 affinity entry is listed as “binds very weakly”.
In the case of `CC(C)=CCN1CCC2(C)c3cc(O)ccc3CC1C2C` (single isomer, unassigned; (-)) [(−)-Pentazocine], the sigma-2 affinity result in the series with sigma-2 receptor is reported as “has sigma-2 affinity”.
Regarding `CN(C)CCN(C)CCc1ccc(Cl)c(Cl)c1` [BD1047], the “antagonist activity in the calcium assay” value in series [4] (pH 7.2) was “ineffective”; in series [4] (pH 8.2) it was “effectively attenuated agonist activity”.
As to `CN1CCN(CCc2ccc(Cl)c(Cl)c2)CC1` [BD1063], the figures for the “antagonist activity in the calcium assay” value in series [4] (pH 7.2) and in series [4] (pH 8.2) were “ineffective” and “effectively attenuated agonist activity”, respectively.
On to `CN1CC[C@]2(c3cccc(O)c3)CC(=O)/C(=C/c3ccccc3)[C@H]1C2` [CB-64D, (+)-1R,5R-E-8-benzylidene-5-(3-hydroxyphenyl)-2-methylmorphan-7-one], for which the “extent of apoptotic changes / apoptotic nuclei (TUNEL)” value in the series on MCF-7 cells [5] is listed as “extensive apoptotic changes”. The TUNEL assay result with MCF-7 cells [5] is recorded as “positive results”; in the series with T47D cells [8] (100 μM, 48 hours, FIG. 2), “positive results”. In addition, the “cells visualized displaying apoptotic nuclei” value in the series with MCF-7 cells [5] (in some experiments) is listed as “up to 100%”. Besides, the “cell morphological changes and cell death” value in series [1] is reported as “activity”. In addition, the induction of apoptosis result in series [6] was “induce apoptosis”. For the same compound, the “effect of caspase inhibitors on drug-induced apoptosis (Annexin V binding)” value with MCF-7 cells [7] was “unaffected by co-treatment with caspase inhibitors”. The “cytotoxicity (LDH release, percentage of total cell kill)” value with T47D cells [9] and with SKBr3 cells was “cytotoxic” each time. Further, in the series with breast tumor cell lines (intact cells), the “potency relative to CB-184 (fold less potent)” value is “about 10 fold”. Further, in the series with breast tumor cell lines, the “effect of p53 status on cytotoxic potency” value is “generally not affected by p53 status; also recorded: comparable”. For the same compound, the “sigma receptor subtype selectivity” value in the series on sigma-2 receptor is “sigma-2 subtype-selective”.
Consider `CN1CC[C@]2(c3cccc(O)c3)CC(=O)/C(=C/c3ccc(Cl)c(Cl)c3)[C@H]1C2` [CB-184, (+)-1R,5R-E-8-(3,4-dichlorobenzylidene)-5-(3-hydroxyphenyl)-2-methylmorphan-7-one], for which the “cytotoxicity of combination with doxorubicin” value in the series with MCF-7 cells [2] (CB184 1 μM + doxorubicin 10 μM, 24 and 48 hours, FIG. 7A, 7B) is “Clear synergistic effects”; in the series on MCF-7/Adr^− cells (CB184 1 μM + doxorubicin 10 μM) it was “less pronounced”. Besides, the “effect of DEVD-CHO on cytotoxicity (LDH release)” value in the series with MCF-7 cells [2] (DEVD-CHO 50 μM, caspase 3 inhibitor, FIG. 6A, 6B) is given as “no difference”. Besides, the “effect of caspase inhibitors on drug-induced cytotoxicity (LDH release)” value in the series with MCF-7 cells [2] (DEVD-CHO or Z-VAD-FMK 50 μM, FIG. 6A-6C) is recorded as “not that induced by CB-184”. In addition, the “cytotoxicity (LDH release, percentage of total cell kill)” value with T47D cells [9] and in the series with SKBr3 cells was “cytotoxic” each time. The “concentration below which toxicity is generally not seen in the LDH assay” value in the series on breast tumor cell lines (24 hrs) is recorded as “below 1 μM”. Moreover, the relative cytotoxic potency result with breast tumor cell lines (intact cells) is “more potent than CB-64D; also recorded: most potent sigma-2 selective agent in intact cells”; in the series on breast tumor cell lines (intact cells, listed as CB184), “greatest potency in all cell lines tested”. Further, in the series with breast tumor cell lines (below 1 μM, 48 hrs), the “LDH release compared to controls” value is listed as “mildly increased LDH release”. In addition, the “effect of p53 status on cytotoxic potency” value in the series on breast tumor cell lines was “generally not affected by p53 status; also recorded: comparable”. Moreover, in the series on MCF-7/Adr^− cells (CB184 1 μM + actinomycin D 1 μg/ml at 24 hours or 0.1 μg/ml at 48 hours, FIG. 7C, 7D), the “cytotoxicity of combination with actinomycin D” value is “potentiated”. The “sigma receptor subtype selectivity” value with sigma-2 receptor is given as “sigma-2 subtype-selective”.
As to `Cc1c2oc3c(C)ccc(C(=O)N[C@@H]4C(=O)N[C@H](C(C)C)C(=O)N5CCC[C@H]5C(=O)N(C)CC(=O)N(C)[C@@H](C(C)C)C(=O)O[C@@H]4C)c3nc-2c(C(=O)N[C@@H]2C(=O)N[C@H](C(C)C)C(=O)N3CCC[C@H]3C(=O)N(C)CC(=O)N(C)[C@@H](C(C)C)C(=O)O[C@@H]2C)c(N)c1=O` [actinomycin D] (I: T[dV]P[Sar][NMeV] / II: T[dV]P[Sar][NMeV]; ester I:1-I:C, II:1-II:C; linker I:N-II:N via Actinocin(9to1)), the induction of apoptosis entry in [6] was “greatly attenuated”; with SKBr3 cell lines, “apoptosis was induced”; in the series with T47D cells [8], “apoptosis was induced”.
Take `O=P1(N(CCCl)CCCl)NCCCO1` (stereo not shown) [cyclophosphamide]: the induction of apoptosis entry in the series on SKBr3 cell lines and in the series on T47D cells [8] was “apoptosis was induced” throughout.
Regarding `COc1cccc2c1C(=O)c1c(O)c3c(c(O)c1C2=O)C[C@@](O)(C(=O)CO)C[C@@H]3O[C@H]1C[C@H](N)[C@H](O)[C@H](C)O1` [doxorubicin], the TUNEL assay result with MCF-7 cells [5] is recorded as “positive results”; in the series with T47D cells [8] (100 μM, 48 hours, FIG. 2), “positive results”. The induction of apoptosis entry is reported as “greatly attenuated” in series [6], “apoptosis was induced” in the series with SKBr3 cell lines and “apoptosis was induced” in the series on T47D cells [8]. Moreover, the “effect of caspase inhibitors on drug-induced apoptosis (Annexin V binding)” value with MCF-7 cells [7] was “blocked apoptosis induced by doxorubicin”. Further, in the series with MCF-7 cells [2] (various concentrations, FIG. 6C), the LDH release entry is “dose-dependent increase in LDH-release”.
Turning to `O=C(CCCN1CCC(O)(c2ccc(Cl)cc2)CC1)c1ccc(F)cc1` [haloperidol], in the series with MCF-7 cells [5], the “extent of apoptotic changes / apoptotic nuclei (TUNEL)” value is given as “less extensively than the more potent CB64D” and the TUNEL assay result is “positive results”. Moreover, in [1], the “cell morphological changes and cell death” value is on record as “cell death”. The TUNEL assay result in the series on T47D cells [8] (100 μM, 48 hours, FIG. 2) is “positive results”. Further, the “sigma receptor subtype selectivity” value in the series on sigma-2 receptor is recorded as “subtype non-selective”.
On to `OC(CCCN1CCC(O)(c2ccc(Cl)cc2)CC1)c1ccc(F)cc1` (stereo not shown) [reduced haloperidol], for which, in the series with MCF-7 cells [5], the “extent of apoptotic changes / apoptotic nuclei (TUNEL)” value was “less extensively than the more potent CB64D”. In addition, the TUNEL assay result with MCF-7 cells [5] and in the series with T47D cells [8] was “positive results” throughout. The “cell morphological changes and cell death” value in series [1] is recorded as “cell death”. Further, the “sigma receptor subtype selectivity” value in the series with sigma-2 receptor was “subtype non-selective”.
